Measurements: paper PMC5365654, “Cyclic Boronates Inhibit All Classes of β-Lactamases” (Antimicrobial Agents and Chemotherapy, 2017)
Read-outs that look alike come from different tables or passages of the source.

Tests used:
VIM-1 = target: T1, VIM-1 (Pseudomonas aeruginosa, UniProt A0A0F7KYQ8); assay: FC5 fluorogenic metallo-β-lactamase inhibition assay, VIM-1; assay type: biochemical; conditions: pH 7.5, FC5 substrate, read-out: IC50, μM (mean ± SD) for VIM-1, pH 7.5
T1 construct: His tag (3C-cleavable) (C, cleaved yes); made in house
From the text: (§1) To investigate the extent to which cyclic boronates inhibit class C β-lactamases as well as the important class A ESBL and class D carbapenemase targets, we used a fluorogenic assay ([22]) to screen the cyclic boronates, which we have found to inhibit other β-lactamases ([21]), against them. The β-lactamases used for screening included TEM-1 and CTX-M-15 (class A), the metallo-β-lactamase (MBL) from Bacillus cereus (BcII), Verona integron-encoded metallo-β-lactamase 1 (VIM-1) (class B), AmpC from P. aeruginosa (class C), and OXA-23 and OXA-48 (class D), collectively representing all classes of β-lactamase.
(§2) We also screened the cyclic boronates against the model MBL, BcII, and VIM-1 using the FC5-based fluorogenic assay ([22]).
(§3) Inhibition assays were carried out using FC5 as a fluorogenic reporter substrate ([22]). Enzyme concentrations and buffers were the same as those employed in steady-state kinetic studies (see Table S2 in the supplemental material). […] The concentration of FC5 employed was 10 μM for TEM-1 and 5 μM for all other enzymes. […] Data at 0 min of incubation were obtained by addition of enzyme to a premixed solution of inhibitor and substrate. Residual enzyme activity was determined for a range of inhibitor concentrations. Nonlinear regression fitting of IC50 curves was carried out using a three-parameter dose-response curve in GraphPad Prism. Errors in IC50 are expressed as [σ(log IC50)/log IC50)] × IC50.
(§4) 45 Steady-state kinetics studies used a Pherastar FS microplate reader with UV-STAR® 96-well,
(§5) 47 black, µclear® plates (Greiner Bio-One) for FC5 (1). […]
(§6) 51 1 µM ZnSO4, 0.01% Triton X-100 for MBL assays. Reaction progress was monitored at 298 K
(§7) 53 intensity (λex = 380 nm, λem = 480 nm) for FC5 (1). Suitable enzyme concentrations for
(§8) 54 kinetic analysis were determined by monitoring changes in absorbance/fluorescence for
(§9) 55 enzyme concentrations between 20 nM and 20 pM. […]

BcII = BcII (Bacillus cereus, UniProt P04190); assay: FC5 fluorogenic metallo-β-lactamase inhibition assay, BcII; assay type: biochemical; conditions: FC5 substrate
Chain of BcII (P04190 31-257): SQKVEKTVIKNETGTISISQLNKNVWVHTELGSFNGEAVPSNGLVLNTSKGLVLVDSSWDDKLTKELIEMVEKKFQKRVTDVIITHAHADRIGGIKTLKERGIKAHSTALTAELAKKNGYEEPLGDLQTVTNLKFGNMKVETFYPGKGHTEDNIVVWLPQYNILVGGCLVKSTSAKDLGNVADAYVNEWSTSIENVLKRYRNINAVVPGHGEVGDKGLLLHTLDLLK
From the text: as §1, §2, §3, §4, §5, §6, §7, §8, §9

CTX-M-15 [1] = target: T2, CTX-M-15 (Escherichia coli, UniProt Q9EXV5); assay type: biochemical, E. coli; conditions: CTX-M-15-catalysed hydrolysis of the substrate
T2 construct: hexahistidine (pOPINF, 3C-cleavable) (N, cleaved yes); made in house; host or cells: E. coli BL21(DE3)
T2 sequence (Q9EXV5 entry or part of it): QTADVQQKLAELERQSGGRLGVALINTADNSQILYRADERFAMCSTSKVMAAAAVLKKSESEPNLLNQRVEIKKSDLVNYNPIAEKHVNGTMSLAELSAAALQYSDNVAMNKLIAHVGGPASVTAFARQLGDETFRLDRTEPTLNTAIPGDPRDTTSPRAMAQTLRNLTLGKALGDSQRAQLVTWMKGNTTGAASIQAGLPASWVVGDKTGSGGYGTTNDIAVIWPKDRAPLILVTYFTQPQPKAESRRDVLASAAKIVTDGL
Protocol: as §4
(§10) 47 black, µclear® plates (Greiner Bio-One) for FC5 (1). Buffers employed were 100 mM
(§11) 48 phosphate buffer pH 7.5, 0.01% (v/v) Triton X-100 for TEM-1, CTX-M-15 and AmpC, 100 mM
(§12) 49 phosphate buffer pH 7.5, 50 mM sodium bicarbonate, 0.01% Triton X-100 for OXA-23 and
as §6, §7, §8
(§13) 55 enzyme concentrations between 20 nM and 20 pM.
(§14) Kinetic constants were determined using the initial rate of hydrolysis with the
(§15) 57 reaction initiated through the addition of enzyme to pre-prepared substrate concentrations.
(§16) 58 Substrate concentrations ranged between 400 µM and 0.4 µM. The Michaelis-Menten
(§17) 59 equation was fitted to data by non-linear regression using GraphPad Prism software to
(§18) 60 calculate the Michaelis-Menten constant and the limiting rate (2).

OXA-48 [2] = target: T3, OXA-48 (Klebsiella pneumoniae, UniProt Q6XEC0); assay type: biochemical; conditions: OXA-48-catalysed hydrolysis of the substrate
T3 construct: hexahistidine (pOPINF, 3C-cleavable) (N, cleaved yes); made in house; host or cells: E. coli BL21(DE3)
T3 sequence (Q6XEC0 23-265 limits assumed): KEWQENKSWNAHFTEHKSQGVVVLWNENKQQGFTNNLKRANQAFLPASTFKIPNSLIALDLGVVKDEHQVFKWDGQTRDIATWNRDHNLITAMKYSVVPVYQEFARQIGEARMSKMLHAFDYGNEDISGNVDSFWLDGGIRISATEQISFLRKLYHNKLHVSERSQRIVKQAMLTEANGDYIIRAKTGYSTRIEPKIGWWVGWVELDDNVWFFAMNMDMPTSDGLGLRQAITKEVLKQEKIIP
Protocol: as §4, §10, §11, §12, §6, §7, §8, §13, §14, §15, §16, §17, §18

OXA-23 [3] = target: T4, OXA-23 (Acinetobacter baumannii, UniProt Q9L4P2); assay type: biochemical; conditions: OXA-23-catalysed hydrolysis of the substrate
T4 construct: hexahistidine (pOPINF, 3C-cleavable) (N, cleaved yes); made in house; host or cells: E. coli BL21(DE3)
T4 sequence (Q9L4P2 18-273): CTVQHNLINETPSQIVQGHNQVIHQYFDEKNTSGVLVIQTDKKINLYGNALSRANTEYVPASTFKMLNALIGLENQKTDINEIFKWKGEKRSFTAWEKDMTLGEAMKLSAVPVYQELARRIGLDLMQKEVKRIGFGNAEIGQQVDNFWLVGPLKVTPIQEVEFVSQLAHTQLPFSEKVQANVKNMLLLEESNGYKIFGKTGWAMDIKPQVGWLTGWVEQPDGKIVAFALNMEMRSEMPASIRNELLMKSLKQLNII
Protocol: as §4, §10, §11, §12, §6, §7, §8, §13, §14, §15, §16, §17, §18

AmpC = target: T5, AmpC (Pseudomonas aeruginosa, UniProt P24735); assay type: biochemical; conditions: AmpC-catalysed hydrolysis of the substrate
T5 construct: hexahistidine (pOPINF, 3C-cleavable) (N, cleaved yes); made in house; host or cells: E. coli BL21(DE3)
T5 sequence (P24735 27-397): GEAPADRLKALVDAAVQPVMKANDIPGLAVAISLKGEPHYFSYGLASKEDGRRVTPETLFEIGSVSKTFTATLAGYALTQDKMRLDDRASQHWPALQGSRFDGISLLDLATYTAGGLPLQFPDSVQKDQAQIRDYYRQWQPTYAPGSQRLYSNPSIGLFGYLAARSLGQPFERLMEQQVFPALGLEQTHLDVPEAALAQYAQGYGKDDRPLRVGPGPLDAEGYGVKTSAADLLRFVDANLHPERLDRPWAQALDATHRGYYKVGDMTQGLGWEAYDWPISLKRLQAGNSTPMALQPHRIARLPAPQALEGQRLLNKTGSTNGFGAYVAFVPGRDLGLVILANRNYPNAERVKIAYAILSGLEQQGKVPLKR
Protocol: as §4, §10, §11, §12, §6, §7, §8, §13, §14, §15, §16, §17, §18

AmpC from P. aeruginosa = target: T6, AmpC from P. aeruginosa (Pseudomonas aeruginosa, UniProt P24735); assay: FC5 fluorogenic β-lactamase inhibition assay, AmpC; assay type: biochemical; conditions: IC50, nM (mean ± SD) for AmpC, FC5 substrate
T6 construct: hexahistidine (pOPINF, 3C-cleavable) (N, cleaved yes); made in house; host or cells: E. coli BL21(DE3)
T6 sequence (P24735 27-397): as above
From the text: as §1, §3, §4, §10, §11, §12, §6, §7, §8, §13, §14, §15, §16, §17, §18

OXA-48 [4] = target: T3, OXA-48; assay: FC5 fluorogenic β-lactamase inhibition assay, OXA-48; assay type: biochemical
From the text: as §1, §3, §4, §10, §11, §12, §6, §7, §8, §13, §14, §15, §16, §17, §18

CTX-M-15 [5] = target: T2, CTX-M-15; assay: FC5 fluorogenic β-lactamase inhibition assay, CTX-M-15; assay type: biochemical; conditions: FC5 substrate
From the text: as §1, §3, §4, §10, §11, §12, §6, §7, §8, §13, §14, §15, §16, §17, §18

OXA-23 [6] = target: T4, OXA-23; assay: FC5 fluorogenic β-lactamase inhibition assay, OXA-23; assay type: biochemical
From the text: as §1, §3, §4, §10, §11, §12, §6, §7, §8, §13, §14, §15, §16, §17, §18

Compound: O=C(O)C(S)c1ccccc1 (racemic) [(±)-Thiomandelic acid, thiomandelic acid]
- IC50 (VIM-1; preincubation 0 min): 0.38 ± 0.03 µM
- IC50 (VIM-1; preincubation 10 min): 0.45 ± 0.02 µM
- IC50 (VIM-1; preincubation 30 min): 0.8 ± 0.9 µM
- IC50 (VIM-1; preincubation 60 min): 1.4 ± 0.9 µM
- IC50 (VIM-1; preincubation 360 min): 2 ± 1 µM
- IC50 (BcII; pH 6.5, preincubation 0 min, read-out: IC50, μM (mean ± SD) for BcII, pH 6.5): 0.27 ± 0.06 µM
- IC50 (BcII; pH 6.5, preincubation 10 min, read-out: IC50, μM (mean ± SD) for BcII, pH 6.5): 0.9 ± 0.1 µM
- IC50 (BcII; pH 6.5, preincubation 30 min, read-out: IC50, μM (mean ± SD) for BcII, pH 6.5): 0.5 ± 0.1 µM
- IC50 (BcII; pH 6.5, preincubation 60 min, read-out: IC50, μM (mean ± SD) for BcII, pH 6.5): 2 ± 1 µM
- IC50 (BcII; pH 6.5, preincubation 360 min, read-out: IC50, μM (mean ± SD) for BcII, pH 6.5): 2 ± 1 µM
- IC50 (BcII; pH 7.5, preincubation 0 min, read-out: IC50, μM (mean ± SD) for BcII, pH 7.5): 0.3 ± 0.03 µM
- IC50 (BcII; pH 7.5, preincubation 10 min, read-out: IC50, μM (mean ± SD) for BcII, pH 7.5): 0.39 ± 0.05 µM
- IC50 (BcII; pH 7.5, preincubation 30 min, read-out: IC50, μM (mean ± SD) for BcII, pH 7.5): 0.33 ± 0.04 µM
- IC50 (BcII; pH 7.5, preincubation 60 min, read-out: IC50, μM (mean ± SD) for BcII, pH 7.5): 0.5 ± 0.2 µM
- IC50 (BcII; pH 7.5, preincubation 360 min, read-out: IC50, μM (mean ± SD) for BcII, pH 7.5): 2 ± 1 µM

Compound: O=C(Cc1ccccc1)N[C@@H]1C(=O)N2C(C(=O)O)=C(COc3ccc4ccc(=O)oc4c3)CS(=O)(=O)[C@H]12 [FC5]
- Km (CTX-M-15 [1]): 170 ± 20 µM
- kcat (CTX-M-15 [1]): 1100 ± 100 s⁻¹
- Km (OXA-48 [2]): 420 ± 50 µM
- kcat (OXA-48 [2]): 28 ± 2 s⁻¹
- Km (OXA-23 [3]): 500 ± 130 µM
- kcat (OXA-23 [3]): 38 ± 7 s⁻¹
- Km (AmpC): 600 ± 220 µM
- kcat (AmpC): 500 ± 160 s⁻¹

Compound: CC1(C)[C@H](C(=O)O)N2C(=O)C[C@H]2S1(=O)=O [Sulbactam, sulbactam]
- IC50 (AmpC from P. aeruginosa; preincubation 0 min): > 200000 nM
- IC50 (AmpC from P. aeruginosa; preincubation 10 min): 42000 nM
- IC50 (AmpC from P. aeruginosa; preincubation 30 min): 8600 nM
- IC50 (AmpC from P. aeruginosa; preincubation 60 min): 4400 nM
- IC50 (AmpC from P. aeruginosa; preincubation 360 min): 1000 nM
- IC50 (OXA-48 [4]): > 200000 nM
- IC50 (OXA-48 [4]; read-out: IC50, nM (mean ± SD) for OXA-48, preincubation 10 min, FC5 substrate): > 200000 nM
- IC50 (OXA-48 [4]; read-out: IC50, nM (mean ± SD) for OXA-48, preincubation 30 min, FC5 substrate): > 200000 nM
- IC50 (OXA-48 [4]; read-out: IC50, nM (mean ± SD) for OXA-48, preincubation 60 min, FC5 substrate): > 200000 nM
- IC50 (OXA-48 [4]; read-out: IC50, nM (mean ± SD) for OXA-48, preincubation 360 min, FC5 substrate): > 200000 nM
- IC50 (CTX-M-15 [5]; IC50, nM (mean ± SD) for CTX-M-15, preincubation 0 min): 44 ± 1 nM
- IC50 (CTX-M-15 [5]; IC50, nM (mean ± SD) for CTX-M-15, preincubation 10 min): 29 ± 1 nM
- IC50 (CTX-M-15 [5]; IC50, nM (mean ± SD) for CTX-M-15, preincubation 30 min): 28 ± 7 nM
- IC50 (CTX-M-15 [5]; IC50, nM (mean ± SD) for CTX-M-15, preincubation 60 min): 32 ± 0.3 nM
- IC50 (CTX-M-15 [5]; IC50, nM (mean ± SD) for CTX-M-15, preincubation 360 min): 16.6 ± 0.1 nM
- IC50 (OXA-23 [6]): > 200000 nM
- IC50 (OXA-23 [6]; read-out: IC50, nM (mean ± SD) for OXA-23, preincubation 10 min, FC5 substrate): > 200000 nM
- IC50 (OXA-23 [6]; read-out: IC50, nM (mean ± SD) for OXA-23, preincubation 30 min, FC5 substrate): > 200000 nM
- IC50 (OXA-23 [6]; read-out: IC50, nM (mean ± SD) for OXA-23, preincubation 60 min, FC5 substrate): > 200000 nM
- IC50 (OXA-23 [6]; read-out: IC50, nM (mean ± SD) for OXA-23, preincubation 360 min, FC5 substrate): > 200000 nM
